Source: patent US11040031B2, “Pyrazole derivatives as MALT1 inhibitors” (Janssen Pharmaceutica NV, priority 2018, dated 2021)
Like-named read-outs stand apart in the source and are kept apart here.

Key:
[1] = tested on: Secretion of IL6 by OCI-LY3 ABC-DLBCL cells; test: Human IL6 Mesoscale assay (OCI-LY3); type: cell-based; details: read-out: Human IL6 Mesoscale assay (OCI-LY3)
Description: (§1) NFKB signaling regulates the secretion of multiple cytokines, including IL6 and IL10. Secretion of the cytokines IL6 and IL10 by TMD8 or OCI-LY3 ABC-DLBCL cells was measured using a mesoscale assay.
(§2) Cell passage number should not exceed 30. Cells should be kept between 0.5-2.5 million cells per mL during culturing and cells should be supplemented every 2-3 days with fresh 50 µM beta-mercaptoenthanol. No beta-mercaptoethanol was used during the mesoscale assay.
(§3) DMSO control wells were used to determine the maximum signal (High Control (HC)). […] Compounds and cells were incubated for 24 h at 37° C. and 5% CO2 (assay volume is 150 μL). After 24 h of incubation 50 μL of the supernatant was transferred to a MSD plate (V-Plex Proinflammation Panel 1 (human) kit, Mesoscale (MSD)) and incubated for 2 h with vigorous shaking (600 rpm) at room temperature. Following incubation, plates were washed 3× with PBS+0.05% Tween-20 and 25 μL detection antibody solution (IL6 & IL10 antibodies in diluent 3 (MSD)) was added per well followed by 2 h of incubation with vigorous shaking (600 rpm) at room temperature. After 3× washes with PBS+0.05% Tween-20, plates were incubated with 150 μL 2× Read Buffer T and read on SECTOR imager.

[2] = molecular target: T1, full-length MALT1 protein (Strep-MALT1(1-824)-His) (Homo sapiens, UniProt Q9UDY8); test: biochemical;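 further: fluorogenic LRSR-AMC substrate cleavage by MALT1, 50 min compound preincubation then 4 h reaction at RT, 11-point dilution from 30 µM, scaled between enzyme-free and untreated enzyme controls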
T1 sequence (Q9UDY8 1-824): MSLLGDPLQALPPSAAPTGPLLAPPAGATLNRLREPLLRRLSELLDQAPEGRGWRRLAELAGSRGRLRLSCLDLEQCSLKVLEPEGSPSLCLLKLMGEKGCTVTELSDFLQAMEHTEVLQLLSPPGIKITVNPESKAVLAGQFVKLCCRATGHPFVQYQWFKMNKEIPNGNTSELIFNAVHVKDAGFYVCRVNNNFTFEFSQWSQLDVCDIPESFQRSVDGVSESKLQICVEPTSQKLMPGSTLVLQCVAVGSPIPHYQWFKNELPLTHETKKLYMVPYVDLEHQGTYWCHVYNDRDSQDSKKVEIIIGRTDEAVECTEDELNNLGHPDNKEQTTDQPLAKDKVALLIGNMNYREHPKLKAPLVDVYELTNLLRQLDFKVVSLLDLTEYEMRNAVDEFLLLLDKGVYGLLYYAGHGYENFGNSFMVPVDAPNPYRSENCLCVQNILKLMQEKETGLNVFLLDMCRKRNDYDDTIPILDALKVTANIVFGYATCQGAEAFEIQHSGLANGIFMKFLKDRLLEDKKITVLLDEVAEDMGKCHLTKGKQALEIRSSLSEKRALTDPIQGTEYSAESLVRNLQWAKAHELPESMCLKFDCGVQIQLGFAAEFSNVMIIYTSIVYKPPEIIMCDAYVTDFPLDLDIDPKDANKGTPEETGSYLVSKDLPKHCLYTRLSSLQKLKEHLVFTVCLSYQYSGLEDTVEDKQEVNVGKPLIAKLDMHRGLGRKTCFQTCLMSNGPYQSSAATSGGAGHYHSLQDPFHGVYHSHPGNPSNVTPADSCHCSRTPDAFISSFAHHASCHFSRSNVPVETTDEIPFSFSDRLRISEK

[3] = tested on: Secretion of IL10 by OCI-LY3 ABC-DLBCL cells; test: Human IL10 Mesoscale assay (OCI-LY3); type: cell-based; details: read-out: Human IL10 Mesoscale assay (OCI-LY3)
Description: as §1, §2, §3

[4] = OCI-LY3 cells, 24 h incubation, supernatant, MSD V-Plex

| Compound | IC50 [1, 4] | IC50 [2] | IC50 [3, 4] | IC50 ([1]; OCI-Ly3, 24 h) | IC50 ([3]; OCI-Ly3, 24 h) |
| --- | --- | --- | --- | --- | --- |
| Cc1ccc(N)nc1-n1ncc(C(=O)Nc2cnc(-n3nccn3)c(C#N)c2)c1C(F)(F)F [Cpd 141, 1-(6-amino-3-methylpyridin-2-yl)-N-(5-cyano-6-(2H-1,2,3-triazol-2-yl)pyridin-3-yl)-5-(trifluoromethyl)-1H-pyrazole-4-carboxamide] | 427 nM | 100 nM | 407 nM | – | – |
| Nc1cccc(-n2ncc(C(=O)Nc3cnc(-n4nccn4)c(Cl)c3)c2C(F)(F)F)n1 [Cpd 180, 1-(6-aminopyridin-2-yl)-N-(5-chloro-6-(2H-1,2,3-triazol-2-yl)pyridin-3-yl)-5-(trifluoromethyl)-1H-pyrazole-4-carboxamide] | 257 nM | 219 nM | 170 nM | – | – |
| Cc1c(F)cccc1-n1ncc(C(=O)Nc2cnc(-n3nccn3)c(C#N)c2)c1C(F)(F)F [Cpd 167, N-(5-cyano-6-(2H-1,2,3-triazol-2-yl)pyridin-3-yl)-1-(3-fluoro-2-methylphenyl)-5-(trifluoromethyl)-1H-pyrazole-4-carboxamide] | 54 nM | 69 nM | 41 nM | – | – |
| Cc1cc(F)c(N)nc1-n1ncc(C(=O)Nc2cnc(-n3nccn3)c(C#N)c2)c1C(F)(F)F [Cpd 145, 1-(6-amino-5-fluoro-3-methylpyridin-2-yl)-N-(5-cyano-6-(2H-1,2,3-triazol-2-yl)pyridin-3-yl)-5-(trifluoromethyl)-1H-pyrazole-4-carboxamide] | – | 32 nM | – | 17 nM | 18 nM |
| Cc1nc(-n2nccn2)c(C#N)cc1NC(=O)c1cnn(-c2ccc(F)c(N)n2)c1C(F)(F)F [Cpd 182, 1-(6-amino-5-fluoropyridin-2-yl)-N-(5-cyano-2-methyl-6-(2H-1,2,3-triazol-2-yl)pyridin-3-yl)-5-(trifluoromethyl)-1H-pyrazole-4-carboxamide] | 490 nM | 234 nM | 389 nM | – | – |
| Cc1cc(-n2nccn2)c(Cl)cc1NC(=O)c1cnn(-c2ccc(F)c(N)n2)c1C(F)(F)F [Cpd 193, 1-(6-amino-5-fluoropyridin-2-yl)-N-(5-chloro-2-methyl-4-(2H-1,2,3-triazol-2-yl)phenyl)-5-(trifluoromethyl)-1H-pyrazole-4-carboxamide] | 871 nM | 1170 nM | 741 nM | – | – |
| Cc1cnc(N)cc1-n1ncc(C(=O)Nc2cnc(-n3nccn3)c(C#N)c2)c1C(F)(F)F [Cpd 142, 1-(2-amino-5-methylpyridin-4-yl)-N-(5-cyano-6-(2H-1,2,3-triazol-2-yl)pyridin-3-yl)-5-(trifluoromethyl)-1H-pyrazole-4-carboxamide] | 676 nM | 22 nM | 355 nM | – | – |
| Cc1nc(-n2nccn2)c(C#N)cc1NC(=O)c1cnn(-c2ccc(C#N)c(N)n2)c1C(F)(F)F [Cpd 177, 1-(6-amino-5-cyanopyridin-2-yl)-N-(5-cyano-2-methyl-6-(2H-1,2,3-triazol-2-yl)pyridin-3-yl)-5-(trifluoromethyl)-1H-pyrazole-4-carboxamide] | 7410 nM | 195 nM | 2750 nM | – | – |
| N#Cc1cc(NC(=O)c2cnn(-c3nc(N)ccc3Cl)c2C(F)(F)F)cnc1-n1nccn1 [Cpd 175, 1-(6-amino-3-chloropyridin-2-yl)-N-(5-cyano-6-(2H-1,2,3-triazol-2-yl)pyridin-3-yl)-5-(trifluoromethyl)-1H-pyrazole-4-carboxamide] | 331 nM | 141 nM | 229 nM | – | – |

The remaining molecules from weak to strong by IC50 [2], led by results:

| IC50 [1, 4] | IC50 [2] | IC50 [3, 4] | IC50 ([1]; OCI-Ly3, 24 h) | IC50 ([3]; OCI-Ly3, 24 h) | Compound |
| --- | --- | --- | --- | --- | --- |
| – | 1200 nM | – | 5370 nM | 1860 nM | Cc1cc(-n2nccn2)c(C#N)cc1NC(=O)c1cnn(-c2ccc(F)c(N)n2)c1C(F)(F)F [Cpd 195, 1-(6-amino-5-fluoropyridin-2-yl)-N-(5-cyano-2-methyl-4-(2H-1,2,3-triazol-2-yl)phenyl)-5-(trifluoromethyl)-1H-pyrazole-4-carboxamide] |
| – | 646 nM | – | – | – | O=C(Nc1cnc(-n2nccn2)c(Cl)c1)c1cnn(-c2ccc(F)c(F)c2F)c1C(F)(F)F [Cpd 89, N-(5-chloro-6-(2H-1,2,3-triazol-2-yl)pyridin-3-yl)-5-(trifluoromethyl)-1-(2,3,4-trifluorophenyl)-1H-pyrazole-4-carboxamide] |
| – | 427 nM | – | – | – | N#Cc1cc(NC(=O)c2cnn(-c3ccc(F)c(Cl)c3)c2C(F)(F)F)cnc1-n1nccn1 [Cpd 109, 1-(3-chloro-4-fluorophenyl)-N-(5-cyano-6-(2H-1,2,3-triazol-2-yl)pyridin-3-yl)-5-(trifluoromethyl)-1H-pyrazole-4-carboxamide] |
| 251 nM | 302 nM | 182 nM | – | – | N#Cc1cc(NC(=O)c2cnn(-c3nc(Cl)ccc3Cl)c2C(F)(F)F)cnc1-n1nccn1 [Cpd 162, N-(5-cyano-6-(2H-1,2,3-triazol-2-yl)pyridin-3-yl)-1-(3,6-dichloropyridin-2-yl)-5-(trifluoromethyl)-1H-pyrazole-4-carboxamide] |
| 813 nM | 170 nM | 813 nM | – | – | Cc1cc(N)nc(-n2ncc(C(=O)Nc3cnc(-n4nccn4)c(C#N)c3)c2C(F)(F)F)c1 [Cpd 176, 1-(6-amino-4-methylpyridin-2-yl)-N-(5-cyano-6-(2H-1,2,3-triazol-2-yl)pyridin-3-yl)-5-(trifluoromethyl)-1H-pyrazole-4-carboxamide] |
| – | 170 nM | 83 nM | – | – | Cc1c(-n2ncc(C(=O)Nc3cnc(-n4nccn4)c(Cl)c3)c2C(F)(F)F)ccc(F)c1F [Cpd 174, N-(5-chloro-6-(2H-1,2,3-triazol-2-yl)pyridin-3-yl)-1-(3,4-difluoro-2-methylphenyl)-5-(trifluoromethyl)-1H-pyrazole-4-carboxamide] |
| 123 nM | 151 nM | 100 nM | – | – | CSc1ccccc1-n1ncc(C(=O)Nc2cnc(-n3nccn3)c(Cl)c2)c1C(F)(F)F [Cpd 137, N-(5-chloro-6-(2H-1,2,3-triazol-2-yl)pyridin-3-yl)-1-(2-(methylthio)phenyl)-5-(trifluoromethyl)-1H-pyrazole-4-carboxamide] |
| – | 151 nM | – | 158 nM | 158 nM | N#Cc1cc(NC(=O)c2cnn(-c3c(Cl)cc(F)cc3Cl)c2C(F)(F)F)cnc1-n1nccn1 [Cpd 102, N-(5-cyano-6-(2H-1,2,3-triazol-2-yl)pyridin-3-yl)-1-(2,6-dichloro-4-fluorophenyl)-5-(trifluoromethyl)-1H-pyrazole-4-carboxamide] |
| 107 nM | 117 nM | 105 nM | – | – | N#Cc1cc(NC(=O)c2cnn(-c3ccccc3Cl)c2C(F)(F)F)cnc1-n1nccn1 [Cpd 116, 1-(2-chlorophenyl)-N-(5-cyano-6-(2H-1,2,3-triazol-2-yl)pyridin-3-yl)-5-(trifluoromethyl)-1H-pyrazole-4-carboxamide] |
| 95 nM | 63 nM | 63 nM | – | – | Cc1cc(C#N)ccc1-n1ncc(C(=O)Nc2cnc(-n3nccn3)c(Cl)c2)c1C(F)(F)F [Cpd 37, N-(5-chloro-6-(2H-1,2,3-triazol-2-yl)pyridin-3-yl)-1-(4-cyano-2-methylphenyl)-5-(trifluoromethyl)-1H-pyrazole-4-carboxamide] |
| 66 nM | 50 nM | 78 nM | – | – | Cc1cc(Cl)ccc1-n1ncc(C(=O)Nc2cnc(-n3nccn3)c(C#N)c2)c1C(F)(F)F [Cpd 166, 1-(4-chloro-2-methylphenyl)-N-(5-cyano-6-(2H-1,2,3-triazol-2-yl)pyridin-3-yl)-5-(trifluoromethyl)-1H-pyrazole-4-carboxamide] |
